Laboratory results as given in patent US7740882B2, “Enhanced oral and transcompartmental delivery of therapeutic or diagnostic agents” (priority 2001, dated 2010).
“Also recorded” adds a separate entry of the source. Where two headings read alike, the source gives them in different places. Non-standard residues stand in square brackets, D forms with d.

Tests used:
[1] = biological target: T1, human sodium dependent multivitamin transporter, hSMVT (Homo sapiens, UniProt Q9Y289); experiment: Uptake in CHO cells transiently transfected with hSMVT (CHO/hSMVT); conditions: not concentration dependent controls
T1 sequence (Q9Y289 1-635): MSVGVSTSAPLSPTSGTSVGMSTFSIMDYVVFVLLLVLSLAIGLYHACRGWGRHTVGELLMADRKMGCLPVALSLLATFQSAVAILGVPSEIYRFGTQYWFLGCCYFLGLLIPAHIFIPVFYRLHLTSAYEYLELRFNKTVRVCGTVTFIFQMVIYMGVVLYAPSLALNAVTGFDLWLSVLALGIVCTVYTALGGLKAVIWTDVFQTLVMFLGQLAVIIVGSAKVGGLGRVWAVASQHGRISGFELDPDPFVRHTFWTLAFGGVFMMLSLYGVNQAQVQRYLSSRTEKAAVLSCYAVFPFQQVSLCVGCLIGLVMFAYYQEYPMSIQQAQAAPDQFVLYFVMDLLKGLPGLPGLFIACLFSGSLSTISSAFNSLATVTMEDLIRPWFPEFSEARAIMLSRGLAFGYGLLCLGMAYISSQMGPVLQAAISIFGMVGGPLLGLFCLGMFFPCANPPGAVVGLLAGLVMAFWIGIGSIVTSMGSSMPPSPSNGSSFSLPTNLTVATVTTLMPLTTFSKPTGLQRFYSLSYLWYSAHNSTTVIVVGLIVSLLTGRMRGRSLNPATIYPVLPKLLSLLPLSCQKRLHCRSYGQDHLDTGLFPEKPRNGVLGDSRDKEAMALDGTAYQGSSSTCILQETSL
Protocol: (§1) CHO Cell Uptake Studies CHO cells transiently transfected with hSMVT (CHO/hSMVT) were washed twice with 25 mM uptake buffer, containing 25 mM Hepes/Tris pH 7.5, 140 mM NaCl, 5.4 mM KCl, 1.8 CaCl2, 0.8 mM MgSO4 and 5 mM glucose, approximately 48 hours post-transfection. Subsequently, the cells were incubated with the permeant at 37° C. for 10 minutes. Uptake was stopped by washing the cells thrice with ice-cold buffer. Non-specific uptake was measured in parallel experiments with the control pSPORT vector-transfected CHO cells. Finally, the cells were solubilized by 0.1% v/v Triton X-100, and 0.6 ml was used for scintillation counting. From the remaining volume, 10 μl of solution was taken from each well and protein concentration was determined using the Bio-Rad reagent according to the Bradford technique [M. Bradford, A rapid and sensitive method of quantitation of microgram quantities of protein utilizing the principle of protein-dye binding, Anal. Biochem. 72 (1976) 248]. Bovine serum albumin was used as the standard.
Parallel uptake experiments were performed using CHO/pSPORT control cells.
as §1, with “hSMVT” for “hSMVT (CHO/hSMVT)”, “glucose.” for “glucose, approximately 48 hours post-transfection.”, “Washing” for “Uptake was stopped by washing”, “three times” for “thrice”, “buffer stopped drug uptake.” for “buffer.”, “manufacturer's instructions.” for “Bradford technique [M. Bradford, A rapid and sensitive method of quantitation of microgram quantities of protein utilizing the principle of protein-dye binding, Anal. Biochem. 72 (1976) 248].”
as §1, with “Studies.” for “Studies”, “glucose.” for “glucose, approximately 48 hours post-transfection.”, “manufacturer's instructions.” for “Bradford technique [M. Bradford, A rapid and sensitive method of quantitation of microgram quantities of protein utilizing the principle of protein-dye binding, Anal. Biochem. 72 (1976) 248].”

[2] = tested on: bovine brain microvessel endothelial cells (BBMECs); experiment: Transport (permeability) across BBMEC monolayers, in vitro BBB model
Protocol: Non-biotinylated PEGs were used in the control studies.
Isolation and culture of BBMECs. Bovine Brain Microvessel Endothelial Cells (BBMECs) were used as an in vitro model of BBB. BBMECs were isolated from bovine brain by a two-step enzymatic method and the cells were cultured on collagen coated Transwell™ plates or polystyrene plates in an atmosphere of 95% air and 5% CO2 at 37° C. Transendothelial electrical resistance (TEER) and several molecular markers were used to validate the integrity of the cell culture system.
The cells were cultured on 12-well Transwell™ filters for 7-8 days and transport was evaluated. […] All studies were performed at 37° C.

CHO/pSPORT cells = experiment: Non-specific uptake in vector-transfected control CHO/pSPORT cells
Protocol: as §1, with “From the remaining volume, 10 μl of solution was taken from each well and protein concentration was determined using the Bio-Rad reagent according to the Bradford technique [M. Bradford, A rapid and sensitive method of quantitation of microgram quantities of protein utilizing the principle of protein-dye binding, Anal. Biochem. 72 (1976) 248].” left out
CHO Cell Uptake Studies CHO cells transiently transfected with hSMVT were washed twice with 25 mM uptake buffer, containing 25 mM Hepes/Tris pH 7.5, 140 mM NaCl, 5.4 mM KCl, 1.8 CaCl2, 0.8 mM MgSO4 and 5 mM glucose. […] Non-specific uptake was measured in parallel experiments with the control pSPORT vector-transfected CHO cells. […] From the remaining volume, 10 μl of solution was taken from each well and protein concentration was determined using the Bio-Rad reagent according to the manufacturer's instructions. […]
CHO Cell Uptake Studies. […] Non-specific uptake was measured in parallel experiments with the control pSPORT vector-transfected CHO cells. […]

superoxide production = conditions: literature value; read-out: EC50 for superoxide production (Klinker et al., 1996); cited from earlier work
[3] = tested on: differentiated HL-60 cells; experiment: Intracellular calcium assay (45Ca release from intracellular stores); assay type: cell-based, human; conditions: differentiated HL-60 cells, calcium release; read-out: Cell Activation EC50
Protocol: Intracellular Calcium Assay. HL-60 cells (2×10^5 cells/mL) were grown in the presence of 1.3% DMSO for 5 days. For each time course experiment, 2×10^6 cells were resuspended in 5 mL of HBSS containing 2 mCi/mL of ^45CaCl2 as the sole source of calcium. After 90 min incubation at 37° C., cells were washed twice as above with cold HBSS. […] Cell pellets were treated with 0.5% Triton X-100/0.1 M NaOH and centrifuged in tubes containing 0.3 mL of 10% sucrose and radioactivity associated with the pellets was measured; this represents vesicle-associated ^45Ca. The top portion of the tube, which contained the cytoplasmic ^45Ca was also measured.

[4] = tested on: peritoneal cells (macrophages); experiment: Uptake by peritoneal cells after intraperitoneal injection (DIG ELISA); assay type: in vivo, BALB/c mice
Protocol: (§2) Uptake by HL-60, Jurkat and Peritoneal Cells. Human Jurkat T-cell growth conditions were the same as for HL-60 cells, except that the subcultivation ratio was 1:3. Jurkat cells (2×10^5) or fully differentiated HL-60 cells were washed twice with PBS and incubated in binding buffer (see above) with conjugate for 30 min at 37° C. Each conjugate (1 μg, dissolved at a concentration of 333 nM) was used in these experiments. Cells were lysed, the membranes and cell debris were removed by centrifugation (5 min. at 14,000×g) and the enzyme-linked immunosorbent assay (ELISA) for DIG was performed on the supernatant as described below. In order to study primary peritoneal cells, BALB/c mice were injected in the peritoneal cavity with 5 μg of PEG/A-DIG4-fMLF4 (n=3 mice), or PEG/A-DIG4 (n=4 mice). After 1 h, the cavity was flushed with medium and cells were collected and washed twice with cold PBS, as described above.
(§3) Cells were resuspended in 100 μL of PBS, containing 0.6% Tween 20, vortexed briefly and kept on ice for 30 min. […] Uptake of DIG was determined by ELISA of the supernatant. […] DIG content was proportional to the difference in absorbance at 495 nm and 450 nm. […] In order to account for the potential different amounts of peritoneal cells from each mouse, the results were normalized to the amount of protein, as measured with the Bradford assay (BioRad, Hercules Calif.).

Jurkat T-cells = experiment: Uptake of DIG conjugates by Jurkat cells (DIG ELISA); assay type: cell-based, human; conditions: 333 nM, 30 min
Protocol: as §2, §3

[5] = biological target: T2, fMLF receptor on differentiated HL-60 cells (Homo sapiens, UniProt P21462); experiment: Competitive receptor binding assay with fML[3H]F
T2 construct: endogenous in cells; host or cells: HL-60 cells differentiated with 1.3% DMSO for 48 h; whole cells
T2 sequence (P21462 1-350): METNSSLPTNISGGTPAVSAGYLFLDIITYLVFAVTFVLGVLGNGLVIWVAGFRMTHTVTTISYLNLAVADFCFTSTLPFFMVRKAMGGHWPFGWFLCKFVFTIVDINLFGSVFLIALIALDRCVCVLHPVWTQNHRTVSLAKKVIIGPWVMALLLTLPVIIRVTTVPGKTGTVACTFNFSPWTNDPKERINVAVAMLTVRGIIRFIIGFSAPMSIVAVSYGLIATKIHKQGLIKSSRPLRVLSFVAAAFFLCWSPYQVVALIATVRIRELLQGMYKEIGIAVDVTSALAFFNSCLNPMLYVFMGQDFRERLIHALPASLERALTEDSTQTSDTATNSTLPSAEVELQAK
Protocol: Competitive Receptor Binding Assay. HL-60 cells were propagated in RPMI 1640 supplemented with 2 mM L-glutamine and 10% (v/v) heat-inactivated fetal bovine serum, and were subcultured every 3 days at a ratio of 1:4. Cells were grown at 37° C. in an atmosphere of 5% CO2. Dimethyl sulfoxide (DMSO, 1.3%) was added to the culture (3×10^5 cells/mL) 48 h before the binding assay to initiate cellular differentiation. […] The cells were incubated for 15 min at 37° C. with gentle shaking. They were collected by centrifugation at 3,000 g for 5 min at room temperature. The supernatant was removed and cells were resuspended in 0.1 mL of binding buffer and carefully added to the very top of tubes (Denville Scientific, South Plainfield, N.J., catalog #C19002) that contained 0.3 mL of 10% sucrose. They were centrifuged for 5 min. The cells settled to the bottom and any unbound ligand remained in the middle of the tube. The tubes were placed in dry ice for 5 min, and then their bottoms were cut off to collect the cells. Cell-bound and free radioactivity were determined by liquid scintillation counting.

[6] = tested on: differentiated HL-60 cells; experiment: Uptake of DIG conjugates by differentiated HL-60 cells (DIG ELISA); assay type: cell-based, human; conditions: 333 nM, 30 min, 37° C.
Protocol: as §2, §3

SMVT [7] = biological target: T3, SMVT (Homo sapiens, UniProt Q9Y289); conditions: read-out: Ki, competitive inhibition of RI-K(biotin)-Tat9 transport; Caco-2, inhibitors at 10 and 20 μM
T3 sequence (Q9Y289 1-635): T1 sequence (Q9Y289 1-635)
Description: [formula] where Pe is the effective permeability of the substrate transported, Cs is the substrate concentration and Pm and Pc represent the passive and carrier-mediated component of the permeability. All data were initially fitted to a 3-parameter model (Pc, Pm, Km for Caco-2 studies, Jmax, Pm, Km for CHO studies). […] The data from inhibition studies were transformed into Lineweaver-Burke plots to determine the nature of the inhibition process (competitive, non-competitive). Subsequently, the inhibition constant (Ki) values were estimated using Dixon plots. Data used for the above plots were weighted using 1/SEM^2 (S.E.M=Standard Error of Mean). The kinetic parameters for CHO cell studies were estimated by performing non-linear regression using the equation J=Jmax*[C]/(Km+[C])+Pm*C, where J is the rate of permeant uptake, Pm is the passive uptake component and [C] is the substrate concentration. Data were weighted using 1/S.E.M^2.

SMVT [8] = biological target: T3, SMVT; experiment: Inhibition of substrate uptake in CHO/hSMVT cells by 50 μM SMVT substrates; assay type: in vitro ADME; design: expressed in transfected cells; host or cells: CHO cells (ATCC), transient Lipofectamine transfection; plasmid was a gift of Dr. Puttur D. Prasad
SMVT [9] = biological target: T3, SMVT; conditions: read-out: Ki, competitive inhibition of biotin-PEG-3400 transport; Caco-2, inhibitors at 10 and 20 μM
Description: Data Analysis. The Michaelis-Menten kinetic parameters for the Caco-2 cell monolayer transport studies were estimated by performing weighted non-linear regression with Scientist software (MicroMath, Utah) using the following equation: Pe=Pm+Pc/(1+C/Km), where Pe is the effective permeability of the substrate transported, C is the substrate concentration and Pm and Pc represent the passive and carrier-mediated component of the permeability. The data from inhibition studies were transformed into Lineweaver-Burke plots to determine the nature of the inhibition process (competitive, non-competitive). […] Data used for the above plots were weighted using 1/S.E.M.^2. The kinetic parameters for CHO cell studies were estimated by performing non-linear regression using the equation J=Jmax*[C]/(Km+[C]), where J is the rate of permeant uptake, Jmax is the maximal uptake velocity and [C] is the substrate concentration. Data were weighted using 1/S.E.M.^2. Statistical analyses were performed using Jandel SigmaStat, version 2.03. One-way analysis of variance was used to test the difference in the mean values of uptake using p<0.05 as the significance level for all tests.

Protocol for Caco-2 cell monolayers: Caco-2 Cell Transport Studies An Ussing-type diffusion chamber system (Harvard Apparatus, Natick, Mass.) was used to perform transport studies. The apical solution was a MES Ringer's buffer (pH 6.5) consisting of 114.0 mM NaCl, 5.0 mM KCl, 1.1 mM MgSO4, 1.25 mM CaSO4, and 15 mM 2-(N-morpholino)ethanesulfonic acid (MES). The basolateral solution was a Ringer's buffer (pH 7.4) consisting of 114.0 mM NaCl, 5.0 mM KCl, 1.65 mM Na2HPO4, 0.3 mM NaH2PO4, 25 mM NaHCO3, 1.1 mM MgSO4, and 1.25 mM CaSO4. Both buffers contained 25 mM glucose and were adjusted to 290 mOsm/kg using a vapor pressure osmometer (Wescor Inc, Logan, Utah). For transport experiments using filters with cell monolayers, the inserts were rinsed with Ringer's buffet containing 25 mM glucose three times over a 20 min period at room temperature. The TEER was measured for each monolayer before it was mounted onto the diffusion chamber, which was pre-warmed to 37° C. by placement on the heating blocks. The volume of each half-chamber was 5 ml and the surface area of the Snapwell™ filters available for drug transport was 1 cm^2. […] The donor solution consisted of radiolabeled permeant in the apical buffer [apical (AP) to basolateral (BL) study]. Starting at 30 min, samples were taken from the receptor chamber every 15 min until the end of the experiment (105 min). A minimum of three monolayers was used to determine the permeability of test compound in each study and sample analysis was performed using scintillation counting (Perkin Elmer, Gaithersburg, Md.).
The Michaelis-Menten kinetic parameters of Caco-2 and CHO cell transport were then estimated using non-linear regression.
Prior to experimentation, diffusion chambers mounted with the Snapwells™ containing Caco-2 cells were equilibrated at 5° C., 10° C., 15° C., 25° C. and 37° C.
[formula] where Pe is the effective permeability of the substrate transported, Cs is the substrate concentration and Pm and Pc represent the passive and carrier-mediated component of the permeability. All data were initially fitted to a 3-parameter model (Pc, Pm, Km for Caco-2 studies, Jmax, Pm, Km for CHO studies).
Caco-2 Cell Transport Studies An Ussing-type diffusion chamber system (Harvard Apparatus, Natick, Mass.) was used to perform transport studies. The apical solution was a MES Ringer's buffer (pH 6.5) consisting of 114.0 mM NaCl, 5.0 mM KCl, 1.1 mM MgSO4, 1.25 mM CaSO4, and 15 mM 2-(N-morpholino)ethanesulfonic acid (MES). The basolateral solution was a Ringer's buffer (pH 7.4) consisting of 114.0 mM NaCl, 5.0 mM KCl, 1.65 mM Na2HPO4, 0.3 mM NaH2PO4, 25 mM NaHCO3, 1.1 mM MgSO4, and 1.25 mM CaSO4. Both buffers contained 25 mM glucose and were adjusted to 290 mOsm/kg using a vapor pressure osmometer (Wescor Inc, Logan, Utah). For transport experiments using filters with cell monolayers, the inserts were rinsed with Ringer's buffer containing 25 mM glucose three times over a 20 min period at room temperature. The TEER was measured for each monolayer before it was mounted onto the diffusion chamber, which was pre-warned to 37° C. by placement on the heating blocks.

## N-acetyl-D-Lys-D-Arg-D-Arg-D-Arg-D-Gln-D-Arg-D-Arg-D-Lys-D-Lys-D-Arg-NH2 (Ac-[dK][dR][dR][dR][dQ][dR][dR][dK][dK][dR]-NH2; SMILES CC(=O)N[C@H](CCCCN)C(=O)N[C@H](CCCNC(=N)N)C(=O)N[C@H](CCCNC(=N)N)C(=O)N[C@H](CCCNC(=N)N)C(=O)N[C@H](CCC(N)=O)C(=O)N[C@H](CCCNC(=N)N)C(=O)N[C@H](CCCNC(=N)N)C(=O)N[C@H](CCCCN)C(=O)N[C@H](CCCCN)C(=O)N[C@H](CCCNC(=N)N)C(N)=O) [RI-K-Tat9]
[1]
  uptake in CHO/hSMVT cells: < 1 pmol/mg protein/10 min
[2]
  Papp: 7.3 ×10⁻⁶ cm/s
CHO/pSPORT cells
  uptake in CHO/pSPORT cells: < 1 pmol/mg protein/10 min

## PEG-3350 [reference compound]
Caco-2 cell monolayers
  absorptive/effective permeability (Pe): ~1 ×10⁻⁶ cm/s

## CSCC[C@H](NC=O)C(=O)N[C@@H](CC(C)C)C(=O)N[C@@H](Cc1ccccc1)C(=O)O [fMLF, N-formyl-methionine-leucine-phenylalanine]
Superoxide production
  EC50: 15 to 30 nM

## PEG/A-fMLF4-DIG4: linear PEG-aspartate copolymer bearing four fMLF and four digoxigenin residues
[3]
  EC50: 5.9 nM
[4]; BALB/c mice, 5 μg i.p., 1 h
  administered conjugate taken up by peritoneal cells: 17%
[4]; non-activated peritoneal cells
  DIG accumulation, fold over non-targeted conjugate PEG/A-DIG8: ~5 fold
Jurkat T-cells
  conjugate accumulated: 1.3%
[5]; Kd multiplied by average number of fMLF moieties, read-out: Relative Avidity Kd/fMLP
  Kd: 4.8 nM
[5]; differentiated HL-60 cells, competition with fML[3H]F, read-out: Avidity Kd
  Kd: 1.2 nM
[5]; ratio of EC50 (calcium) to Kd
  Avidity Activation EC50/Kd: 4.92
[6]
  conjugate bound and/or internalized: 18%

## N[C@@H](CCCCNC(=O)CCCC[C@@H]1SC[C@@H]2NC(=O)N[C@@H]21)C(=O)O [biocytin]
SMVT [7]
  Ki: 3270 nM
SMVT [8]; 0.1 μM RI-K(biotin)-Tat9, inhibitor 50 μM
  inhibition of RI-K(biotin)-Tat9 uptake: significantly inhibited; also recorded: significantly lowered (p<0.001)
SMVT [8]; 0.1 μM biotin-PEG-3400, inhibitor 50 μM
  inhibition of biotin-PEG-3400 uptake: significantly (p<0.01) inhibited
SMVT [8]; 0.1 μM conjugate, inhibitor 50 μM
  inhibition of PEG:(RI-K(biotin)-Tat9)8 uptake: significantly lower (p<0.05)
SMVT [9]
  Ki: 14000 nM
